# Activity calls are given as the source filed them. How the calls were made is not given here.
# Test system: CCRIS mutagenicity, Ames/micronucleus/aberration tests
# Assay: CCRIS mutagenicity studies
# [1] = Test System: AMES SALMONELLA TYPHIMURIUM, Strain/Indicator: TA98, Metabolic Activation: NONE, Method: STANDARD PLATE
# [2] = Test System: AMES SALMONELLA TYPHIMURIUM, Strain/Indicator: TA100, Metabolic Activation: NONE, Method: STANDARD PLATE
structure (smiles),measurement,setting,value
COc1cc(OC)c(OC)cc1C=O,mutagenic call,"Test System: AMES SALMONELLA TYPHIMURIUM, Strain/Indicator: TA98, Metabolic Activation: HAMSTER, LIVER, S-9, AROCLOR 1254 (10%), Method: PREINCUBATION",inactive; negative
same,mutagenic call,"Test System: AMES SALMONELLA TYPHIMURIUM, Strain/Indicator: TA98, Metabolic Activation: NONE, Method: PREINCUBATION",inactive; negative
same,mutagenic call,"Test System: AMES SALMONELLA TYPHIMURIUM, Strain/Indicator: TA98, Metabolic Activation: RAT, LIVER, S-9, AROCLOR 1254 (10%), Method: PREINCUBATION",inactive; negative
same,mutagenic call,"Test System: AMES SALMONELLA TYPHIMURIUM, Strain/Indicator: TA100, Metabolic Activation: HAMSTER, LIVER, S-9, AROCLOR 1254 (10%), Method: PREINCUBATION",inactive; negative
same,mutagenic call,"Test System: AMES SALMONELLA TYPHIMURIUM, Strain/Indicator: TA100, Metabolic Activation: NONE, Method: PREINCUBATION",inactive; negative
same,mutagenic call,"Test System: AMES SALMONELLA TYPHIMURIUM, Strain/Indicator: TA100, Metabolic Activation: RAT LIVER S-9, AROCLOR 1254, Method: PREINCUBATION",inactive; negative
same,mutagenic call,"Test System: AMES SALMONELLA TYPHIMURIUM, Strain/Indicator: TA100, Metabolic Activation: RAT, LIVER, S-9, AROCLOR 1254 (10%), Method: PREINCUBATION",inactive; negative
same,mutagenic call,"Test System: AMES SALMONELLA TYPHIMURIUM, Strain/Indicator: TA102, Metabolic Activation: NONE, Method: PREINCUBATION",inactive; negative
same,mutagenic call,"Test System: AMES SALMONELLA TYPHIMURIUM, Strain/Indicator: TA102, Metabolic Activation: RAT LIVER S-9, AROCLOR 1254, Method: PREINCUBATION",inactive; negative
same,mutagenic call,"Test System: AMES SALMONELLA TYPHIMURIUM, Strain/Indicator: TA104, Metabolic Activation: NONE, Method: PREINCUBATION",inactive; negative
same,mutagenic call,"Test System: AMES SALMONELLA TYPHIMURIUM, Strain/Indicator: TA104, Metabolic Activation: RAT LIVER S-9, AROCLOR 1254, Method: PREINCUBATION",inactive; negative
same,mutagenic call,"Test System: AMES SALMONELLA TYPHIMURIUM, Strain/Indicator: TA1535, Metabolic Activation: HAMSTER, LIVER, S-9, AROCLOR 1254 (10%), Method: PREINCUBATION",inactive; negative
same,mutagenic call,"Test System: AMES SALMONELLA TYPHIMURIUM, Strain/Indicator: TA1535, Metabolic Activation: NONE, Method: PREINCUBATION",inactive; negative
same,mutagenic call,"Test System: AMES SALMONELLA TYPHIMURIUM, Strain/Indicator: TA1535, Metabolic Activation: RAT, LIVER, S-9, AROCLOR 1254 (10%), Method: PREINCUBATION",inactive; negative
same,mutagenic call,"Test System: AMES SALMONELLA TYPHIMURIUM, Strain/Indicator: TA1537, Metabolic Activation: HAMSTER, LIVER, S-9, AROCLOR 1254 (10%), Method: PREINCUBATION",inactive; negative
same,mutagenic call,"Test System: AMES SALMONELLA TYPHIMURIUM, Strain/Indicator: TA1537, Metabolic Activation: NONE, Method: PREINCUBATION",inactive; negative
same,mutagenic call,"Test System: AMES SALMONELLA TYPHIMURIUM, Strain/Indicator: TA1537, Metabolic Activation: RAT, LIVER, S-9, AROCLOR 1254 (10%), Method: PREINCUBATION",inactive; negative
same,mutagenic call,"Test System: MOUSE LYMPHOMA, Strain/Indicator: L5178Y (TK+/TK-), Metabolic Activation: RAT, LIVER, S-9, AROCLOR 1254, Method: SUSPENSION/PLATE",active; positive. reevaluation of results: equivocal
same,mutagenic call,"Test System: Mouse lymphoma, Strain/Indicator: L5178Y (tk+/tk-), Metabolic Activation: None, Method: Suspension/plate",inactive; negative
O=[N+]([O-])c1ccc2c(c1)cc([N+](=O)[O-])c1ccccc12,mutagenic call,"Test System: AMES SALMONELLA TYPHIMURIUM, Strain/Indicator: TA98(1,8-DNP6), Metabolic Activation: NONE, Method: STANDARD PLATE",active; positive
same,mutagenic call,"Test System: AMES SALMONELLA TYPHIMURIUM, Strain/Indicator: TA98(NR), Metabolic Activation: NONE, Method: STANDARD PLATE",active; positive
same,mutagenic call,[1],active; positive
same,mutagenic call,[2],active; positive
same,mutagenic call,"Test System: AMES SALMONELLA TYPHIMURIUM, Strain/Indicator: YG1021, Metabolic Activation: NONE, Method: STANDARD PLATE",active; positive
same,mutagenic call,"Test System: AMES SALMONELLA TYPHIMURIUM, Strain/Indicator: YG1024, Metabolic Activation: NONE, Method: STANDARD PLATE",active; positive
same,mutagenic call,"Test System: AMES SALMONELLA TYPHIMURIUM, Strain/Indicator: YG1026, Metabolic Activation: NONE, Method: STANDARD PLATE",active; positive
same,mutagenic call,"Test System: AMES SALMONELLA TYPHIMURIUM, Strain/Indicator: YG1029, Metabolic Activation: NONE, Method: STANDARD PLATE",active; positive
CC(Cl)C(=O)NCc1ccccc1 (stereo not drawn),mutagenic call,"Test System: AMES SALMONELLA TYPHIMURIUM, Strain/Indicator: TA100, Metabolic Activation: MOUSE, LIVER, S-9, AROCLOR 1254, Method: STANDARD PLATE",inactive; negative
same,mutagenic call,[2],inactive; negative
O=C[C@H](NC(=O)N(CCCl)N=O)[C@@H](O)[C@H](O)[C@H](O)CO,mutagenic call,"Test System: CHINESE HAMSTER V-79, Strain/Indicator: V-79/6-THIOGUANINE, Metabolic Activation: NONE, Method: STANDARD PLATE",active; positive
Clc1cncc(Cl)c1,mutagenic call,"Test System: AMES SALMONELLA TYPHIMURIUM, Strain/Indicator: TA97, Metabolic Activation: NONE, Method: STANDARD PLATE",inactive; negative
same,mutagenic call,"Test System: AMES SALMONELLA TYPHIMURIUM, Strain/Indicator: TA97, Metabolic Activation: RAT, LIVER, S-9, AROCLOR 1254, Method: STANDARD PLATE",inactive; negative
same,mutagenic call,[1],inactive; negative
same,mutagenic call,"Test System: AMES SALMONELLA TYPHIMURIUM, Strain/Indicator: TA98, Metabolic Activation: RAT, LIVER, S-9, AROCLOR 1254, Method: STANDARD PLATE",inactive; negative
same,mutagenic call,[2],inactive; negative
same,mutagenic call,"Test System: AMES SALMONELLA TYPHIMURIUM, Strain/Indicator: TA100, Metabolic Activation: RAT, LIVER, S-9, AROCLOR 1254, Method: STANDARD PLATE",inactive; negative
same,mutagenic call,"Test System: AMES SALMONELLA TYPHIMURIUM, Strain/Indicator: TA102, Metabolic Activation: NONE, Method: STANDARD PLATE",inactive; negative
same,mutagenic call,"Test System: AMES SALMONELLA TYPHIMURIUM, Strain/Indicator: TA102, Metabolic Activation: RAT, LIVER, S-9, AROCLOR 1254, Method: STANDARD PLATE",inactive; negative

# — PubChem BioAssay AID1259407 (Chemical Carcinogenesis Research Information System (CCRIS), 2018)
